Data from patent publication US20260297070A1, “CYCLIC [COMPOUND LEFT OUT] WRN INHIBITORS” (Nimbus Wadjet, Inc., priority 2023, published 2026).

What follows are compounds tested against T1, human Werner helicase (WRN-BV08, Uniprot Q14191, amino acids 517-1235 with L1074F point mutation) (Homo sapiens, UniProt Q14191, L1074F) (assay: WRN (BV08) ADP-Glo Assay). Conditions: 0.15 nM WRN, 5 μM ATP, 0.1 nM DNA duplex, 15 min preincubation, 60 min at 25° C., pH 7.5, 1% DMSO; read-out: ADP-Glo_hWRN_IC50.
T1 construct: Uniprot Q14191, amino acids 517-1235 with L1074F point mutation; TEV-cleavable 8×His (C, cleaved yes); made in house; host or cells: Sf9 insect cells (baculovirus)
T1 sequence (Q14191 with tags, fused parts or gaps L1074F limits assumed): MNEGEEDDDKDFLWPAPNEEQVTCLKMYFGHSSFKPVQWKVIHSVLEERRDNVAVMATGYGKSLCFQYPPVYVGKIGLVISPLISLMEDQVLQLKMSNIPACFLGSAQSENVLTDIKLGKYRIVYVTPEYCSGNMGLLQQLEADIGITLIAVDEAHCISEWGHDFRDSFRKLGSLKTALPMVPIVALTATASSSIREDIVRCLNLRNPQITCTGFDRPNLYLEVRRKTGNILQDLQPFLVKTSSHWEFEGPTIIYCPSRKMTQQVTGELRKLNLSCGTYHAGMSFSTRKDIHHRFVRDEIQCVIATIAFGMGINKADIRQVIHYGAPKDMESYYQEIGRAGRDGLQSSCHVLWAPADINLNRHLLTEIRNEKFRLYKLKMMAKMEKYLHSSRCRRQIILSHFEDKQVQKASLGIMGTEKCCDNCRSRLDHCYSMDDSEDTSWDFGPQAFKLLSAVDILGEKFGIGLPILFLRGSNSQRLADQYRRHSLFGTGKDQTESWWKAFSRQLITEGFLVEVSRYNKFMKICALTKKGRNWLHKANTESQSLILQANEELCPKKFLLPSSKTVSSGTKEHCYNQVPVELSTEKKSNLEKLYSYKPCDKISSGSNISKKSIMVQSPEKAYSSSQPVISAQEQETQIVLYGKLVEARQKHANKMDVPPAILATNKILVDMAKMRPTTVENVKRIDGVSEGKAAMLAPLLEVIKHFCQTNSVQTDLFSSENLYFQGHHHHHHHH
Type: biochemical
Procedure, shortened: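 ADP produced by WRN helicase fragment 517-1235 (L1074F, baculovirus/Sf9, untagged) read by ADP-Glo luminescence after 60 min at 25 °C with 5 μM ATP and 0.1 nM duplex DNA, following 15 min compound preincubation. Final enzyme 0.15 nM in Bicine pH 7.5 buffer, 1% DMSO; 20 μM NSC-617145 defined full inhibition.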

IC50 | Compound
10 to 50 µM | Cc1scnc1-c1ccc(CC(=O)N(Cc2ccncc2)C2C=CS(=O)(=O)C2)c(F)c1 (stereo not shown) [I-320, N-(1,1-dioxo-2,3-dihydro-1lambda6-thiophen-3-yl)-2-[2-fluoro-4-(5-methyl-1,3-thiazol-4-yl)phenyl]-N-[(pyridin-4-yl)methyl]acetamide]
0.5 to 5 µM | O=C(Cc1ccc(-n2cccc2)cc1)N(Cc1nc(C(F)(F)F)cs1)C1C=CS(=O)(=O)C1 (stereo not shown) [I-145, N-(1,1-dioxo-2,3-dihydro-1lambda6-thiophen-3-yl)-2-[4-(1H-pyrrol-1-yl)phenyl]-N-{[4-(trifluoromethyl)-1,3-thiazol-2-yl]methyl}acetamide]
5 to 10 µM | O=C(Cc1ccc(-n2cccc2)cc1)N(Cc1ccccc1)C1C=CS(=O)(=O)C1 (single isomer, unassigned) [I-262]
5 to 10 µM | O=C(C(C(=O)N(Cc1ccncc1)C1C=CS(=O)(=O)C1)c1ccc(-c2ccc(F)cc2)cc1)N1CCOCC1 (stereo not shown) [I-218, N-(1,1-dioxo-2,3-dihydro-1lambda6-thiophen-3-yl)-2-{4′-fluoro-[1,1′-biphenyl]-4-yl}-3-(morpholin-4-yl)-3-oxo-N-[(pyridin-4-yl)methyl]propanamide]
< 0.5 µM | O=C(Cc1ccc(S(F)(F)(F)(F)F)cc1)N(Cc1nc(C2CCC2)cs1)C1C=CS(=O)(=O)C1 (stereo not shown) [I-14, N-[(4-cyclobutyl-1,3-thiazol-2-yl)methyl]-N-(1,1-dioxo-2,3-dihydro-1lambda6-thiophen-3-yl)-2-[4-(pentafluoro-lambda6-sulfanyl)phenyl]acetamide]
< 0.5 µM | O=C(Cn1cc(-c2ccc(F)c(F)c2)cn1)N(Cc1nc([C@@H]2C[C@H]2F)cs1)C1C=CS(=O)(=O)C1 (stereo partly drawn) [I-723, 2-[4-(3,4-difluorophenyl)-1H-pyrazol-1-yl]-N-(1,1-dioxo-2,3-dihydro-1lambda6-thiophen-3-yl)-N-({4-[(1S,2R)-2-fluorocyclopropyl]-1,3-thiazol-2-yl}methyl)acetamide]
> 50 µM | CC(=O)N(C)C(C(=O)N(Cc1ccncc1)C1C=CS(=O)(=O)C1)c1ccc(-c2ccc(F)cc2)cc1 (single isomer, unassigned) [I-378]
0.5 to 5 µM | CC(C)(O)c1cc(CN(C(=O)Cc2ccc(-n3cccc3)cc2)C2C=CS(=O)(=O)C2)ccn1 (stereo not shown) [I-152, N-(1,1-dioxo-2,3-dihydro-1lambda6-thiophen-3-yl)-N-{[2-(2-hydroxypropan-2-yl)pyridin-4-yl]methyl}-2-[4-(1H-pyrrol-1-yl)phenyl]acetamide]
> 50 µM | O=C1CCCN1c1ccc(CC(=O)N(Cc2ccncc2)C2C=CS(=O)(=O)C2)cc1 (stereo not shown) [I-444, N-(1,1-dioxo-2,3-dihydro-1lambda6-thiophen-3-yl)-2-[4-(2-oxopyrrolidin-1-yl)phenyl]-N-[(pyridin-4-yl)methyl]acetamide]
10 to 50 µM | O=C(Cc1ccc(-n2cccc2)cc1)N(Cc1cccc(B(O)O)c1)C1C=CS(=O)(=O)C1 (stereo not shown) [I-314, (3-{[N-(1,1-dioxo-2,3-dihydro-1lambda6-thiophen-3-yl)-2-[4-(1H-pyrrol-1-yl)phenyl]acetamido]methyl}phenyl)boronic acid]
0.5 to 5 µM | Cc1cccn1-c1ccc(CC(=O)N(Cc2ccc(C(=O)N3CCN(C(=O)CCCc4cn(Cc5ccc(NC(=O)CCOCCOCCOCCOCCNC(=O)CCCC[C@@H]6SC[C@@H]7NC(=O)N[C@@H]76)cn5)nn4)CC3)cc2)C2C=CS(=O)(=O)C2)c(F)c1 (stereo partly drawn) [II-2, 1-{5-[(3aS,4S,6aR)-2-oxo-hexahydro-1H-thieno[3,4-d]imidazol-4-yl]pentanamido}-N-{6-[(4-{4-[4-(4-{[N-(1,1-dioxo-2,3-dihydro-1lambda6-thiophen-3-yl)-2-[2-fluoro-4-(2-methyl-1H-pyrrol-1-yl)phenyl]acetamido]methyl}benzoyl)piperazin-1-yl]-4-oxobutyl}-1H-1,2,3-triazol-1-yl)methyl]pyridin-3-yl}-3,6,9,12-tetraoxapentadecan-15-amide]
0.5 to 5 µM | O=C(Cn1cc(-c2ccc(F)cc2)cn1)N(Cc1nc(C2CC2)cs1)C1C=CS(=O)(=O)C1 (single isomer, unassigned) [I-601]
> 50 µM | CS(=O)(=O)N1CCN(C(C(=O)N(Cc2ccncc2)C2C=CS(=O)(=O)C2)c2ccc(-c3ccc(F)cc3)cc2)CC1 (stereo not shown) [I-548, N-(1,1-dioxo-2,3-dihydro-1lambda6-thiophen-3-yl)-2-{4′-fluoro-[1,1′-biphenyl]-4-yl}-2-(4-methanesulfonylpiperazin-1-yl)-N-[(pyridin-4-yl)methyl]acetamide]
5 to 10 µM | O=C(Cc1ccc(S(F)(F)(F)(F)F)cc1)N(Cc1ccnnc1)C1C=CS(=O)(=O)C1 (stereo not shown) [I-646, N-(1,1-dioxo-2,3-dihydro-1lambda6-thiophen-3-yl)-2-[4-(pentafluoro-lambda6-sulfanyl)phenyl]-N-[(pyridazin-4-yl)methyl]acetamide]
5 to 10 µM | CS(=O)(=O)N1CCN(C(=O)C(C(=O)N(Cc2ccncc2)C2C=CS(=O)(=O)C2)c2ccc(-c3ccc(F)cc3)cc2)CC1 (stereo not shown) [I-666, N-(1,1-dioxo-2,3-dihydro-1lambda6-thiophen-3-yl)-2-{4′-fluoro-[1,1′-biphenyl]-4-yl}-3-(4-methanesulfonylpiperazin-1-yl)-3-oxo-N-[(pyridin-4-yl)methyl]propanamide]
< 0.5 µM | CC(O)(c1cc(CN(C(=O)Cn2cc(-c3cc(F)c(F)c(F)c3)cn2)C2C=CS(=O)(=O)C2)ccn1)C1CC1 (stereo not shown) [I-826, N-{[2-(1-cyclopropyl-1-hydroxyethyl)pyridin-4-yl]methyl}-N-(1,1-dioxo-2,3-dihydro-1lambda6-thiophen-3-yl)-2-[4-(3,4,5-trifluorophenyl)-1H-pyrazol-1-yl]acetamide]
0.5 to 5 µM | CC(C)(O)c1cc(CN(C(=O)C2CCCc3c(-c4cc(F)c(F)c(F)c4)cnn32)[C@@H]2C=CS(=O)(=O)C2)ccn1 (single isomer, unassigned) [I-806]
0.5 to 5 µM | COc1cc(CN(C(=O)C(OC2COC2)c2ccc(-c3ccc(F)c(F)c3)cc2F)[C@@H]2C=CS(=O)(=O)C2)ccn1 (single isomer, unassigned) [I-740, (2R*)-N-[(3R)-1,1-dioxo-2,3-dihydro-1lambda6-thiophen-3-yl]-N-[(2-methoxypyridin-4-yl)methyl]-2-(oxetan-3-yloxy)-2-{3,3′,4′-trifluoro-[1,1′-biphenyl]-4-yl}acetamide]
10 to 50 µM | CS(=O)(=O)c1ccccc1CN(C(=O)Cc1ccc(-n2cccc2)cc1)C1C=CS(=O)(=O)C1 (stereo not shown) [I-322, N-(1,1-dioxo-2,3-dihydro-1lambda6-thiophen-3-yl)-N-[(2-methanesulfonylphenyl)methyl]-2-[4-(1H-pyrrol-1-yl)phenyl]acetamide]
> 50 µM | Cc1nn(-c2ccc(F)cc2F)c(C)c1CC(=O)N(Cc1ccncc1)C1C=CS(=O)(=O)C1 (stereo not shown) [I-816, 2-[1-(2,4-difluorophenyl)-3,5-dimethyl-1H-pyrazol-4-yl]-N-(1,1-dioxo-2,3-dihydro-1lambda6-thiophen-3-yl)-N-[(pyridin-4-yl)methyl]acetamide]
< 0.5 µM | CC(C)(O)c1cc(CN(C(=O)Cc2cc(-c3ccc(F)c(F)c3)sn2)[C@@H]2C=CS(=O)(=O)C2)ccn1 [I-825, 2-[5-(3,4-difluorophenyl)-1,2-thiazol-3-yl]-N-[(3R)-1,1-dioxo-2,3-dihydro-1lambda6-thiophen-3-yl]-N-{[2-(2-hydroxypropan-2-yl)pyridin-4-yl]methyl}acetamide]
10 to 50 µM | O=C(Cc1ccc(-n2cccc2)cc1)N(Cc1ccc[nH]c1=O)C1C=CS(=O)(=O)C1 (stereo not shown) [I-369, N-(1,1-dioxo-2,3-dihydro-1lambda6-thiophen-3-yl)-N-[(2-oxo-1,2-dihydropyridin-3-yl)methyl]-2-[4-(1H-pyrrol-1-yl)phenyl]acetamide]
10 to 50 µM | CC(=O)Nc1ccc(CN(C(=O)Cc2ccc(-n3cccc3)cc2)C2C=CS(=O)(=O)C2)cc1 (stereo not shown) [I-302, N-(1,1-dioxo-2,3-dihydro-1lambda6-thiophen-3-yl)-N-[(4-acetamidophenyl)methyl]-2-[4-(1H-pyrrol-1-yl)phenyl]acetamide]
5 to 10 µM | COc1cc(C(C)N(C(=O)Cn2cc(-c3cc(F)c(F)c(F)c3)cn2)C2C=CS(=O)(=O)C2)ccn1 (single isomer, unassigned) [I-830, N-[(3R**)-1,1-dioxo-2,3-dihydro-1lambda6-thiophen-3-yl]-N-[(1R*)-1-(2-methoxypyridin-4-yl)ethyl]-2-[4-(3,4,5-trifluorophenyl)-1H-pyrazol-1-yl]acetamide]
< 0.5 µM | CC(C)(O)c1cc(CN(C(=O)Cn2ccc(-c3ccc(F)cc3)cc2=O)C2C=CS(=O)(=O)C2)ccn1 (single isomer, unassigned) [I-606]
> 50 µM | O=C(Cc1csc(-c2ccccc2)n1)N(Cc1ccncc1)C1C=CS(=O)(=O)C1 (stereo not shown) [I-547, N-(1,1-dioxo-2,3-dihydro-1lambda6-thiophen-3-yl)-2-(2-phenyl-1,3-thiazol-4-yl)-N-[(pyridin-4-yl)methyl]acetamide]
10 to 50 µM | COc1cc(CN(C(=O)Cn2cc(-c3ccc(F)c(F)c3)c(C)n2)[C@@H]2C=CS(=O)(=O)C2)ccn1 [I-713, 2-[4-(3,4-difluorophenyl)-3-methyl-1H-pyrazol-1-yl]-N-[(3R)-1,1-dioxo-2,3-dihydro-1lambda6-thiophen-3-yl]-N-[(2-methoxypyridin-4-yl)methyl]acetamide]
> 50 µM | O=C(Cn1nc(C(F)F)c2c1CCCC2)N(Cc1ccncc1)C1C=CS(=O)(=O)C1 (stereo not shown) [I-616, 2-[3-(difluoromethyl)-4,5,6,7-tetrahydro-1H-indazol-1-yl]-N-(1,1-dioxo-2,3-dihydro-1lambda6-thiophen-3-yl)-N-[(pyridin-4-yl)methyl]acetamide]
